According to the supplement of paper PMC10307832:

Columns and labels:
Test in all cases: relative viability (nuclei count vs DMSO), 5 days (fraction); higher = more cells survive
[1] = compound: Cn1cc(-c2cnc3ccc4ccc(CS(=O)(=O)NCc5ccccn5)cc4c(=O)c3c2)cn1 [MK-8033] + O=C(CCCCCCC(=O)Nc1ccccc1)NO [Vorinostat] (partner 1 µM)
Method in brief: (§1)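 Nuclei were stained with Hoechst during a one-step fixation (final 0.05% Triton X-100, 1% formaldehyde, 1 ug/ml Hoechst) carried out 5 days after dosing, then counted on 4× images. The cells, lung cancer lines in 1536-well plates, had been dosed by pin tool the day after seeding with one drug alone or a fixed anchor-drug dose plus five library-drug doses (not always all listed) in √10 steps. Relative viability is the nuclei count in treated wells divided by that in vehicle wells, and each value is the median of duplicate plates.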

[2] = compound: Cn1cc(-c2cnc3ccc4ccc(CS(=O)(=O)NCc5ccccn5)cc4c(=O)c3c2)cn1 [MK-8033] + Cc1nc(NC(=O)N2CCC[C@H]2C(N)=O)sc1-c1ccnc(C(C)(C)C(F)(F)F)c1 [Alpelisib] (partner 2 µM)
Method in brief: as §1

[3] = compound: Cn1cc(-c2cnc3ccc4ccc(CS(=O)(=O)NCc5ccccn5)cc4c(=O)c3c2)cn1 [MK-8033] + COc1cccc2cc(-c3nc([C@H]4CC[C@H](C(=O)O)CC4)n4ncnc(N)c34)[nH]c12 [OSI-027] (partner 0.5 µM)
Method in brief: as §1

[4] = compound: CC[C@@H](C)CNCC(=O)N1CCC2=C([C@@H]1COC3=CC=CC(=C3)C)C=CS2 [RU-SKI 43] + Cc1cc(Nc2cc(N3CCN(C)CC3)nc(Sc3ccc(NC(=O)C4CC4)cc3)n2)n[nH]1 [Tozasertib] (partner 0.1 µM)
Method in brief: as §1

Work on UMC-11 yielded a relative viability ([1]; first compound 0.02 µM) of 0.32, a relative viability ([1]; first compound 0.06325 µM) of 0.345 and a relative viability ([1]; first compound 0.2 µM) of 0.46. It also gave a relative viability ([1]; first compound 0.6325 µM) of 0.419, a relative viability ([1]; first compound 2 µM) of 0.409 and a relative viability ([2]; first compound 0.02 µM) of 0.988. For the same cell line, the relative viability ([2]; first compound 0.06325 µM) was 0.979, the relative viability ([2]; first compound 0.2 µM) was 0.958 and the relative viability ([2]; first compound 0.6325 µM) was 0.961. It also gave a relative viability ([2]; first compound 2 µM) of 0.986, a relative viability ([3]; first compound 0.02 µM) of 0.483 and a relative viability ([3]; first compound 0.06325 µM) of 0.447. For the same cell line, the relative viability ([3]; first compound 0.2 µM) was 0.381, the relative viability ([3]; first compound 2 µM) was 0.457 and the relative viability ([4]; first compound 0.1 µM) was 0.204. It also gave a relative viability ([4]; first compound 0.3162 µM) of 0.197, a relative viability ([4]; first compound 1 µM) of 0.19 and a relative viability ([4]; first compound 3.162 µM) of 0.175. For the same cell line, the relative viability ([4]; first compound 10 µM) was 0.18.
